According to patent US6960594B2, “Thiophene and furan 2,5-dicarboxamides useful in the treatment of cancer” (Shire BioChem Inc., priority 1998, dated 2005):
Structures can show the parent of a compound that is named as a salt. Where two headings read alike, the source gives them in different places. One block for each compound: values may come before it.

Tests used:
[1] = test system: Chick chorioallantoic membrane (CAM) capillary formation driven by VPF/VEGF165; test: Chick chorioallantoic membrane (CAM) mesh assay; assay type: in vivo, chicken; conditions: significant if >25%
Procedure: Fertilized white leghorn chicken eggs (SPAFAS Inc., Norwich, Conn.) were received at day 0 and incubated for 3 days at 37 C with constant humidity. On day 3, eggs were rinsed with 70% ethanol and opened into 100 mm^2 tissue culture coated Petri dishes under aseptic conditions. The embryos were then returned to a humidified 38 C incubator for 7-9 additional days.
Vitrogen (Collagen Biomaterials, Palo Alto, Calif.) at a final concentration of 0.73 mg/mL and Matrigel (Becton Dickinson, Bedford, Mass.) at a final concentration of 10 mg/mL was directly pipetted onto Nylon meshes with 250 μm^2 openings which were cut into 4 mm×4 mm squares and autoclaved. Polymerization of meshes were under aseptic conditions, on bacteriological Petri dishes. The polymerization conditions for each substrate were identical; after mixing with or without 250 μg of VPF/VEGF165 (Peprotech, Rocky Hill, N.J.) and/or compounds of interest, 40 μL were pipetted onto each mesh in a bacteriological Petri dish. The Petri dish was placed in a humidified 37 C incubator with 5% CO2 for 30 minutes to allow polymerization followed by an incubation at 4° C. for 2 hours.
In a tissue culture enclosure, meshes were placed onto the periphery of the CAM of a day 12-14 embryo, excluding areas containing major vessels. The embryos were then returned to the humidified 38° C. incubator with 3% CO2 for 24 to 48 additional hours.
Embryos were removed from the incubator and meshes were viewed under a dissecting microscope for gross evaluation. Injection of 400 μL FITC dextran, MW 2,000,000 (Sigma, St. Louis, Mo.) through glass microcapillary tubes by infusion into the umbilical vein was performed at a rate of 200 μl per minute. The FITC dextran was allowed to circulate for 5 minutes and 3.7% formaldehyde in PBS was applied directly on each mesh. The embryos were then incubated at 40° C. for 5 minutes and the meshes were dissected off the CAM and fixed in 3.7% formaldehyde for 10 minutes to overnight.
After fixation, meshes were mounted on slides with 90% glycerol in PBS and visualized on an inverted fluorescence microscope. A Nikon Diaphot with a Sony DXC-151A camera attached to the side port was used for capture of images and analysis was with the NIH Image 1.61 software program. For each mesh, 5 random staggered images (approximately 600 μm each) were captured. The areas of high intensity were highlighted and measured. Results are expressed as ability to suppress capillary formation after subtraction from negative control. Values were calculated as a inhibition, considering 100% the capillary density achieved by VPF in the presence of vitrogen alone minus the bakground levels in the absence of VPF. Negative values indicated angiogenic stimulation above the VPF positive control.

placental αvβ3 = target: T1, placental αvβ3 (Homo sapiens, UniProt P05106+P06756); test: Fibrinogen binding to immobilized αvβ3
T1 construct: placental αvβ3 at 0.5 ug/mL; from tissue; host or cells: placenta
Procedure: (§1) The wells of plastic microtiter plates were coated overnight at 4° C. with purified active αIIbβ3 (Calbiochem) or placental αvβ3 at 0.5 ug/mL (100 uL/well) in a buffer containing 150 mM NaCl, 20 mM Tris, pH 7.4, 1 mM MgCl2, 0.2 mM MnCl2, and including 1 mM CaCl2 for αIIbβ3. Blocking of nonspecific sites was achieved by incubating the wells with 35 mg/mL bovine serum albumin (BSA) for at least 2 hours at 37° C. Biotinylated-fibrinogen (10 nM) was added in 0.2 mL binding buffer (100 mM NaCl, 50 mM Tris, pH 7.4, 1 mM MgCl2, 0.2 mM MnCl2 and 1 mg/mL BSA including 1 mM CaCl2 for αIIbβ3) to the wells in triplicate in the absence or presence of increasing concentrations of compounds of interest (0.001-100 uM) and further incubated for 2 hours at 37° C. Nonbound fibrinogen was removed by five washes with binding buffer. Avidin conjugated to alkaline phosphatase (Sigma), diluted in binding buffer, was added and incubated for two hours at 37° C. The plates were washed five times with binding buffer, and after addition of the substrate PNPP (Pierce), the enzyme activity was measured by the absorbance at 405 nm.

GP IIb-IIIa (αIIbβ3) = target: T2, GP IIb-IIIa (αIIbβ3) (Homo sapiens, UniProt P05106+P08514); test: Fibrinogen binding to immobilized GP IIb-IIIa (αIIbβ3)
T2 construct: purchased Calbiochem
Procedure: as §1

HMVEC = test: Cell proliferation and cytotoxicity MTT assay, HMVEC; assay type: cell-based; conditions: HMVEC, 72 hours culture
Procedure: (§2) The wells of microtiter plates were seeded with 2000 cells/well T24, 2500 cells/well HT29 or 5000 cells/well HMVEC (Cell Systems) in 100 uL, followed by an overnight culture for cell adhesion. The next day, the media is supplemented with 100 uL of 10-fold dilution of compound of interest starting at 10 uM. Following culture for 72 hours, 3-(4,5-dimethyl-2-thiazolyl)-2,5-diphenyltetrazolium bromide (MTT; Sigma) at 2 mg/mL was added to each well (50 uL/well) and further incubated for 4 hours at 37° C. The medium was flicked out and 200 uL of a 1:1 solution of ethanol:acetone followed by 25 uL of glycine buffer (0.1 M glycine, 0.1M NaCl, pH 10.5) is added and the color measured by the absorbance at 570 nm.

HT29 = test: Cell proliferation and cytotoxicity MTT assay, HT29; assay type: cell-based; conditions: Homo sapiens, HT-29, 72 hours culture
Procedure: as §2

αvβ3 = target: T3, αvβ3 (Homo sapiens, UniProt P05106+P06756); test: Cell adhesion assay, K562-tr on osteopontin; assay type: cell-based
T3 construct: expressed in transfected cells; host or cells: K562
Procedure: (§3) The wells of 96-well plates (Immunolon) were coated, by incubation overnight at 4° C., with 5 ug/mL vitronectin, 2 ug/mL osteopontin, or fibronectin or 10 mg/mL BSA in PBS. The protein solution was flicked out and the wells were blocked with 10 mg/mL BSA (0.1 mL) for 1-2 hours at 37° C. […] Cells were lifted with trypsin-EDTA and washed two times with Hank's balanced salt solution minus cations (Sigma) supplemented with 1 mM MgCl2 Cells (75,000 cells/well) were added to coated plates in triplicate and allowed to attach at 37° C. for 1 hour in the presence or absence of specific antibodies (5 ug/mL) or 10-fold dilutions of compounds of interest starting at 10 uM. Nonadherent cells were removed by gentle washing twice with PBS. The adherent cells were solubilized with 1% triton x-100 and detected using a fluorescence plate reader (DYNEX Technologies). The number of attached cells was calculated based upon standard curves for each cell line used in the experiment.

αvβ5 = target: T4, αvβ5 (Homo sapiens, UniProt P06756+P18084); test: Cell adhesion assay, HT29 on vitronectin; assay type: cell-based
T4 construct: Cells HT29, K562, or K562 transfected with αvβ3; endogenous in cells; host or cells: HT29
Procedure: as §3

α5β1 = target: T5, α5β1 (Homo sapiens, UniProt P05556+P08648); test: Cell adhesion assay, K562 on fibronectin; assay type: cell-based; conditions: K562 cells, adhesion to fibronectin, 1 hour
T5 construct: Cells HT29, K562, or K562 transfected with αvβ3; endogenous in cells; host or cells: K562
Procedure: The wells of 96-well plates (Immunolon) were coated, by incubation overnight at 4° C., with 5 ug/mL vitronectin, 2 ug/mL osteopontin, or fibronectin or 10 mg/mL BSA in PBS. The protein solution was flicked out and the wells were blocked with 10 mg/mL BSA (0.1 mL) for 1-2 hours at 37° C. Cells HT29, K562, or K562 transfected with αvβ3 (Blystone et al., 1994) were loaded with a fluorescent marker, 5-chloromethylfluorescein diacetate (Molecular Probes, Eugene, Oreg.) for 1 hour at 37° C., then incubated in fresh medium without the fluorescent marker for 1 hour. Cells were lifted with trypsin-EDTA and washed two times with Hank's balanced salt solution minus cations (Sigma) supplemented with 1 mM MgCl2 Cells (75,000 cells/well) were added to coated plates in triplicate and allowed to attach at 37° C. for 1 hour in the presence or absence of specific antibodies (5 ug/mL) or 10-fold dilutions of compounds of interest starting at 10 uM. Nonadherent cells were removed by gentle washing twice with PBS. The adherent cells were solubilized with 1% triton x-100 and detected using a fluorescence plate reader (DYNEX Technologies). The number of attached cells was calculated based upon standard curves for each cell line used in the experiment. Non-specific cell attachment (attachment to wells coated with BSA) was always less than 5%.

[2] = test system: Human non small-cell lung cancer cell line H460; test: Inhibition of metastasis in angiomouse/metamouse human lung cancer model of H460; assay type: in vivo, athymic BALB/c nude mice; conditions: Group B, 10 mg/kg SC 3 times/week
Procedure: Male and female athymic BALB/c nude mice between 4 and 5 weeks of age were used. The animals were bred and maintained in an HEPA-filtered environment with cages, food and bedding sterilized by autoclaving. The breeding pairs were obtained from the Charles River Laboratories (Wilmington, Mass.). The animal diets were obtained from Harlan Teklab (Madison, Wis.). Ampicillin (Sigma, St Louis, Mo.) 5.0% (v/v) was added to the autoclaved drinking water.
Compound VII was tested and AGM-1470 (chloroacetyl-(3R,4S,5S,6R)-5-methoxy-4-[(2R,3R)-2-methyl-3-(3-methyl-2-butenyl)oxiranyl]-1-oxaspiro[2.5]oct-6-yl ester carbamic acid) was used as a positive control. [drawing 51] The compounds were dissolved using PEG400 with heating and sonicatin. The solutions were then diluted with saline to obtain the desired concentrations (30%/70%) and stored at −20° C.
Human non small-cell lung cancer cell line H460 with expression of green fluorescent protein was obtained from the National Cancer Institute. The cells were transfected with vectors carrying the green fluorescent protein (GFP) gene. The cell line was propagated by subcutaneous implantation in nude mice.
Test animals were transplanted by surgical orthotopic implantation (SOI) using fragments harvested from subcutaneaous tumor stock animals. The animals were anesthetized with isoflurane and the surgical area was sterilized using iodine solution and alcohol. A left thoracotomy was made along the 4th intercostal space using a pair of scissors. Two pieces of H460 tumor tissue of one cubic millimiter each were sutured to the left lung using an 8-0 nylon surgical suture. The thorax was closed using a sterile 6-0 silk suture. A sterile 3-cc syringe with a 25-gauge needle was used to remove the air and inflate the lung. All surgical and animal manipulations and procedures were conducted under HEPA-filtered laminar flow hoods.
Extra numbers of mice were transplanted to compensate for postsurgical losses. The orthotopically transplanted animals used were selected to establish groups of similar mean body weight. Groups for each of the cohort conditions wre randomly chosen. The cohort was grouped as follows. A total of 10 mice were used for each dosage regimen. Administration of test compounds and vehicle by subcutaneous injection was begun three days after the orthotopic implantation.
Two animals for each treatment group were sacrificed at day-14 after orthotopic implantation of H460. The remaining animals for each group were sacrificed at day-28 after implantation. The sacrificed animals were evaluated for primary and secondary tumors. Gross examination for distant metastasis was conducted at necropsy. Tissue samples of the primary tumor and those from relevant organs such as the lung, the liver and the lymph nodes wre processed through standards procedures of hematoxylin and eosin staining for subsequent microscopic examination.
The mediastinal lymph nodes, the liver and the lung in each animal were collected. The sampled tissues were sectioned and stained, then microscopically examined. The fisher-exact test was performed to compare distant metastasis to these organs in the treated and the controls. […]

[3] = K562 transfected with αvβ3, adhesion to osteopontin, 1 hour, read-out: IC50 K562-tr Osteopontin (αvβ3)

T5 sequence (P08648 42-894 limits assumed): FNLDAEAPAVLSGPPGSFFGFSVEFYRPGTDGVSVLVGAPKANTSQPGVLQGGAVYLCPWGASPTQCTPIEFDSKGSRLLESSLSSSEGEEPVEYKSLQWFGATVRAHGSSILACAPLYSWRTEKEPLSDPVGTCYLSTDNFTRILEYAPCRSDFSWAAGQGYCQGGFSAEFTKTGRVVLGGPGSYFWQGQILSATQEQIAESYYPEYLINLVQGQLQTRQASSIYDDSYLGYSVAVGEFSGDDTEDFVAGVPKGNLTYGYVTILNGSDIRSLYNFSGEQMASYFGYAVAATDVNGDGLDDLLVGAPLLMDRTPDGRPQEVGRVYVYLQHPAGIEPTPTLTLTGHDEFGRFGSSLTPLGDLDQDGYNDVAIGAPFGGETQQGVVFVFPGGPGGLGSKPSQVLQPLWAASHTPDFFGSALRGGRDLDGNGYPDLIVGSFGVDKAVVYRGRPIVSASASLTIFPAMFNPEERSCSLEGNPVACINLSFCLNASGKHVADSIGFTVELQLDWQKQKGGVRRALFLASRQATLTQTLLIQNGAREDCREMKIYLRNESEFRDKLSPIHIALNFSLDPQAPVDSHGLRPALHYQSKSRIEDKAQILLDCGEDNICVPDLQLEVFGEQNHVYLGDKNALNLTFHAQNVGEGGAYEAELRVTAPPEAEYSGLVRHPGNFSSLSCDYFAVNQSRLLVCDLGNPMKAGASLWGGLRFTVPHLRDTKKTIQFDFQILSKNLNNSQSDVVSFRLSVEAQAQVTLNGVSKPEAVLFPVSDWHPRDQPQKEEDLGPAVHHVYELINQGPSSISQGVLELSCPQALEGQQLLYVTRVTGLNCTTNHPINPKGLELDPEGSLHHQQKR
T5 sequence (P08648 895-1049 partner limits assumed): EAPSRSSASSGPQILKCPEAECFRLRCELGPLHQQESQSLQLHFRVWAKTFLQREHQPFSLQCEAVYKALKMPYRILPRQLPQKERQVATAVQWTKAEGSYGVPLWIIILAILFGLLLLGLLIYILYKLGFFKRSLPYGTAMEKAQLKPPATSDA
T5 sequence (P05556 21-798): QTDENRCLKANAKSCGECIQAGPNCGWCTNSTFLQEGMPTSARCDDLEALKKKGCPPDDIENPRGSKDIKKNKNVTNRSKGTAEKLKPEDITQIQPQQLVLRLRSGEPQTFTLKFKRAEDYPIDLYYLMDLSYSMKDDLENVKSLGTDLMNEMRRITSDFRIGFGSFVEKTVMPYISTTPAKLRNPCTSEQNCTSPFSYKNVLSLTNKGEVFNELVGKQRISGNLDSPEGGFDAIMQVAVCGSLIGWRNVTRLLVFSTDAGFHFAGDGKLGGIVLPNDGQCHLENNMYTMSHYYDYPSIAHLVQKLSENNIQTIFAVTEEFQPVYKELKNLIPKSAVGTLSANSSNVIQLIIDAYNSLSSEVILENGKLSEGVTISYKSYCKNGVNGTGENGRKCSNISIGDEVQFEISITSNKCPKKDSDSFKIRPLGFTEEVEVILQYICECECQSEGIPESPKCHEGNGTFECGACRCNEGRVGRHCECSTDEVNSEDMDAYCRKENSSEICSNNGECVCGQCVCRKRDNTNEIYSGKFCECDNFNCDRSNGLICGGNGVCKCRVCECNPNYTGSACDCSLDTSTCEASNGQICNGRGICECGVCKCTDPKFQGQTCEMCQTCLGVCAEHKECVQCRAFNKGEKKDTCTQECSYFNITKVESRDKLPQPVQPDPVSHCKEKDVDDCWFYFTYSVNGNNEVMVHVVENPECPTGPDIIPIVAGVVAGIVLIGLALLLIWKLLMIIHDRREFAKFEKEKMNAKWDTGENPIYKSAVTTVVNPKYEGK
T3 sequence (P06756 31-889 limits assumed): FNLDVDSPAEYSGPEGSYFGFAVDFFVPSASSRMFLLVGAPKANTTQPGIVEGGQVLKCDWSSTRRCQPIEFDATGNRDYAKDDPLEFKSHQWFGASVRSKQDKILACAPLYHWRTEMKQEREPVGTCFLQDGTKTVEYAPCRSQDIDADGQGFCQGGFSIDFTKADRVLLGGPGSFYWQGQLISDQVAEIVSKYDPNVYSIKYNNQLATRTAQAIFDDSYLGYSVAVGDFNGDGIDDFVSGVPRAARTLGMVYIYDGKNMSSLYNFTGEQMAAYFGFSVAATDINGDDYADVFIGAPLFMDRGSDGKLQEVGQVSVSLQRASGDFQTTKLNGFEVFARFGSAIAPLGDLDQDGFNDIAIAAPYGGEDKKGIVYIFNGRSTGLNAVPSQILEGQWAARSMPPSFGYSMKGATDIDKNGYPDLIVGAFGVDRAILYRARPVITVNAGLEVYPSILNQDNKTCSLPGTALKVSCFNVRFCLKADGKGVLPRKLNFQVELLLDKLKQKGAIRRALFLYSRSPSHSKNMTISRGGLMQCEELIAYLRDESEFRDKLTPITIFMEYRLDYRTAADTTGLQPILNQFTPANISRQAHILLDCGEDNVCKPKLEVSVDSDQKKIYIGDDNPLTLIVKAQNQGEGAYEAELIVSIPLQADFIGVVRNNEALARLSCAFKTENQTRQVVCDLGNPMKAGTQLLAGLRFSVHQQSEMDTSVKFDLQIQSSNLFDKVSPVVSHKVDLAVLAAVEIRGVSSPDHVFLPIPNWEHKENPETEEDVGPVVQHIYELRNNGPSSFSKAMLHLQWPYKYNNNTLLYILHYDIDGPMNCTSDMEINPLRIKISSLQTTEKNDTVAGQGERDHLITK
T3 sequence (P06756 891-1048 partner limits assumed): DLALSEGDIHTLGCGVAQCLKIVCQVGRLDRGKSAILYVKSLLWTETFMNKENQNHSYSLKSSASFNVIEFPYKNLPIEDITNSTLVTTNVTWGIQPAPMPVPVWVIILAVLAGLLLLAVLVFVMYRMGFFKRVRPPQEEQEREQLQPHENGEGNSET
T3 sequence (P05106 27-788): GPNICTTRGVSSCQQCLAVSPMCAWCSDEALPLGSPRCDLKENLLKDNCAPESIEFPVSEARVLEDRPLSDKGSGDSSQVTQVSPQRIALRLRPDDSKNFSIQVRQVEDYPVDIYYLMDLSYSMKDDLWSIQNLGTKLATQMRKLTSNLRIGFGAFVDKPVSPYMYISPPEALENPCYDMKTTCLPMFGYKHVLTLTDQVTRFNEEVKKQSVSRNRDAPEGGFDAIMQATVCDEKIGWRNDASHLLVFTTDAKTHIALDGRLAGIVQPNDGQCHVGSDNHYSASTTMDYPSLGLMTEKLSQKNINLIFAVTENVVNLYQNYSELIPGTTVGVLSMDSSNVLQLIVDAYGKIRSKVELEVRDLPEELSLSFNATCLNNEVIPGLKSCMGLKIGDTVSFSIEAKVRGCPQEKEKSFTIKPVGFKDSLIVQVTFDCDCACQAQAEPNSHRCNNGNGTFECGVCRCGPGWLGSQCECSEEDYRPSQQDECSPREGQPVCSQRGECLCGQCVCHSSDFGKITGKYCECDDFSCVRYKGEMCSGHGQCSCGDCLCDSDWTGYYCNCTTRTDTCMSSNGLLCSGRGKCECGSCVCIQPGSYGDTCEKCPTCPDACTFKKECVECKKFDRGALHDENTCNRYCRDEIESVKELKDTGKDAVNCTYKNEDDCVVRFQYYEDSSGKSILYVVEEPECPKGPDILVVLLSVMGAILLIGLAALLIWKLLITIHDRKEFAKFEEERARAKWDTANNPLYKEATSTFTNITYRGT
T1 sequence (P06756 31-889 limits assumed): as the sequence (P06756 31-889 limits assumed) above
T1 sequence (P06756 891-1048 partner limits assumed): as the sequence (P06756 891-1048 partner limits assumed) above
T1 sequence (P05106 27-788): as the sequence (P05106 27-788) above
T4 sequence (P06756 31-889 limits assumed): as the sequence (P06756 31-889 limits assumed) above
T4 sequence (P06756 891-1048 partner limits assumed): as the sequence (P06756 891-1048 partner limits assumed) above
T4 sequence (P18084 24-799): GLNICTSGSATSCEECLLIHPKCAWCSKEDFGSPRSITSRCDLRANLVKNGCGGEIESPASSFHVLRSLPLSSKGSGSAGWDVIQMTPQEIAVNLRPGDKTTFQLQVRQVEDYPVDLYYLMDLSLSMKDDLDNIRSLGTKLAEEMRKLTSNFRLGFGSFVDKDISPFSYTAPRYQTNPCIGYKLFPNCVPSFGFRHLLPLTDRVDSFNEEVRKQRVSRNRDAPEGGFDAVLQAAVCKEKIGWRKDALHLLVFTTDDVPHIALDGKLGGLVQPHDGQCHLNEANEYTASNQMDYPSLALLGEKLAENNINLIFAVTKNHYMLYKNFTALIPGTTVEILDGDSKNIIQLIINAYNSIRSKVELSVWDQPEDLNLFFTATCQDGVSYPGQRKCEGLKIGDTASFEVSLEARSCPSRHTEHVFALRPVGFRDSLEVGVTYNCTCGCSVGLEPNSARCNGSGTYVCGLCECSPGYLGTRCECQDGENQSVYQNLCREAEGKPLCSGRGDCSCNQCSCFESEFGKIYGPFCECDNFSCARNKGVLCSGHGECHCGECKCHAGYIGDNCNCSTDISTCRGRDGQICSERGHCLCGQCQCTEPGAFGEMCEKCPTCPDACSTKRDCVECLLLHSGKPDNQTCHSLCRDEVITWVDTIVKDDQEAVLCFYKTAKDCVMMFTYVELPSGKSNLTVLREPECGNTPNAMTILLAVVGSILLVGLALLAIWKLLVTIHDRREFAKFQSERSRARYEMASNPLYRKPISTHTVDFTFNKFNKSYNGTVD

Structure (SMILES): NNC(=O)c1ccc(C(=O)NC[C@H](NS(=O)(=O)c2ccccc2)C(=O)O)s1.O=C(O)C(F)(F)F [Compound XVIII, 2S-Benzenesulfonylamino-3-[(5-hydrazinocarbonyl-thiophene-2-carbonyl)-amino]-3-propionic acid trifluoroacetate]
% of inhibition at 33 μg/mesh in the presence of VEGF [1]: 20%

IC50 (placental αvβ3; biotinylated-fibrinogen (10 nM) binding to immobilized αvβ3, read-out: IC50 αvβ3): 3200 nM
IC50 (GP IIb-IIIa (αIIbβ3); biotinylated-fibrinogen (10 nM) binding to immobilized αIIbβ3, read-out: IC50 αIIbβ3): 5.9 µM
Structure (SMILES): N=C(N)NCCCNC(=O)c1ccc(C(=O)NC(CC(=O)O)c2ccccc2)s1 (stereo not shown) [Compound VIII, 3-{[5-(3-guanidino-propylcarbamoyl)-thiophene-2-carbonyl]-amino}-3-phenyl-propionic acid]
IC50 (HMVEC): > 10 µM
IC50 (HT29): > 10 µM
% of inhibition at 33 μg/mesh in the presence of VEGF [1]: 36%

Structure (SMILES): Cl.N=C(N)NCCNC(=O)c1ccc(C(=O)NC[C@H](NS(=O)(=O)c2ccccc2)C(=O)O)o1 [Compound XXI]
% of inhibition at 33 μg/mesh in the presence of VEGF [1]: 32%

Structure (SMILES): NCCNC(=O)c1ccc(C(=O)NC[C@H](NS(=O)(=O)c2ccccc2)C(=O)O)s1 [Compound X, (2S)2-Benzenesulfonylamino-3-[5-(2-amino-ethylcarbamoyl)-thiophen-2-carbonyl]-amino propionic acid trifluoroacetic acid salt]
IC50 (αvβ3; [3]): > 10000 nM
IC50 (αvβ5; HT29 cells, adhesion to vitronectin, 1 hour, read-out: IC50 HT29 Vitronectin (αvβ5)): > 10 µM
IC50 (α5β1): > 10 µM

IC50 (placental αvβ3): 45 nM
IC50 (GP IIb-IIIa (αIIbβ3)): 0.931 µM
IC50 (αvβ3): 2300 nM
IC50 (αvβ5): 5.4 µM
IC50 (α5β1): > 10 µM
Structure (SMILES): Cl.N=C(N)NCCNC(=O)c1ccc(C(=O)NC[C@H](NS(=O)(=O)c2ccccc2)C(=O)O)o1 [Compound XXI, hydrochloride]
IC50 (HMVEC): 8.9 µM
IC50 (HT29): > 10 µM

Structure (SMILES): N=C(N)NNC(=O)c1ccc(C(=O)NC[C@H](NS(=O)(=O)c2ccccc2)C(=O)O)s1.O=C(O)C(F)(F)F [Compound XIX, 2S-Benzenesulfonylamino-3-[(5-guanidino-aminocarbonyl-thiophene-2-carbonyl)-amino]-3-propionic acid trifluoroacetate]
IC50 (αvβ3; [3]): 1300 nM
IC50 (α5β1): > 10 µM
% of inhibition at 33 μg/mesh in the presence of VEGF [1]: 8%

Structure (SMILES): CO[C@@H]1[C@H](OC(=O)NC(=O)CCl)CC[C@]2(CO2)[C@H]1[C@@]1(C)O[C@@H]1CC=C(C)C [AGM-1470, chloroacetyl-(3R,4S,5S,6R)-5-methoxy-4-[(2R,3R)-2-methyl-3-(3-methyl-2-butenyl)oxiranyl]-1-oxaspiro[2.5]oct-6-yl ester carbamic acid, reference compound]
Incidence of lung metastasis [2]: 3/10
Incidence of lymph node metastasis [2]: 1/10
